Like-named read-outs stand apart in the source and are kept apart here.
Assays:
hMetAP1 = target: T1, hMetAP1 (Homo sapiens, UniProt P53582); assay: MetAP enzymatic assay, hMetAP1; type: biochemical
T1 construct: made in house

hMetAP2 = target: T2, hMetAP2 (Homo sapiens, UniProt P50579); assay: MetAP enzymatic assay, hMetAP2; type: biochemical
T2 construct: made in house

HUVEC = HUVEC proliferation, [3H]-thymidine incorporation assay; type: cell-based, human; conditions: read-out: Selectivity HUVEC IC50
Experimental: HCC1954 cells were grown in RPMI1640 containing 10% FBS. HUVEC were grown using the EGM-2 bullet kit (Cambrex) as per manufacturer's instructions. The cells were maintained in a humidified incubator adjusted to 5% CO2. For drug screening, 10 mM stock solutions of Johns Hopkins Drug Library were arrayed in 96-well plates and screened at a final concentration of 10 μM. The cell growth was determined using a [^3H]-thymidine incorporation assay. Cells (typically 5,000 cells/well) were seeded in 96-well plates containing 0.2 ml of growth media and allowed to adhere for 24 h. The cells were then treated with drugs for 24 h. Cells were pulsed with 1 μCi [^3H]-thymidine (MP Biomedicals, 6.7 Ci mmol^−1) for 8 h and harvested, upon trypsin treatment, onto glass fiber filters (Wallac, Turku, Finland), from which ^3H counts were determined using a Perkin Elmer MicroBeta plate reader.

HFF = HFF proliferation (selectivity); type: cell-based
[1] = read-out: hMetAP1 Co^2+ IC50, Table 2, in the presence of Co^2+
[2] = hMetAP2 Co^2+ IC50, Table 2, in the presence of Co^2+
[3] = Table 2, in the presence of Co^2+, read-out: hMetAP1 Co^2+ IC50
[4] = Table 2, in the presence of Mn^2+, read-out: hMetAP1 Mn^2+ IC50
[5] = Table 2, in the presence of Co^2+, read-out: hMetAP2 Co^2+ IC50
[6] = Table 3, in the presence of Co^2+, read-out: hMetAP1 Co^2+ IC50
[7] = Table 3, in the presence of Mn^2+, read-out: hMetAP1 Mn^2+ IC50
[8] = Table 3, in the presence of Co^2+, read-out: hMetAP2 Co^2+ IC50
[9] = Table 3, in the presence of Mn^2+, read-out: hMetAP2 Mn^2+ IC50

T2 sequence (P50579 whole entry): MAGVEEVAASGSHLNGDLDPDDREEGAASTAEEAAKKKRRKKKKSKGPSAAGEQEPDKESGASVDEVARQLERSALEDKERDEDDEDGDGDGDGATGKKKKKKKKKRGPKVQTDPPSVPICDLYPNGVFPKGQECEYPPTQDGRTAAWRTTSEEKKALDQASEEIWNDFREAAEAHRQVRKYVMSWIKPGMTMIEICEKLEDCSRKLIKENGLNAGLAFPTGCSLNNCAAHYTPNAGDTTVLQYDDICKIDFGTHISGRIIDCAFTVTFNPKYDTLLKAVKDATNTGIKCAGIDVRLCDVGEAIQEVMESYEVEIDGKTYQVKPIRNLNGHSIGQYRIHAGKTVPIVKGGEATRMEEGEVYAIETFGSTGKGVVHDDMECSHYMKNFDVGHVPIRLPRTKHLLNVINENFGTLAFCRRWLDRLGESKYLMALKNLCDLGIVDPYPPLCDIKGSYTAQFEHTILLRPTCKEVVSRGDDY

Row | Compound | IC50 (hMetAP1; [6]) [µM] | IC50 (hMetAP1; [7]) [µM] | IC50 (hMetAP2; [8]) [µM] | IC50 (hMetAP2; [9]) [µM] | IC50 (HFF; Table 3) [µM] | also measured
1 | Oc1cccc2cccnc12 [Entry 1a] |  |  |  |  |  | IC50 (hMetAP1; [1]): > 50 µM; IC50 (hMetAP2; [2]): > 50 µM; IC50 (hMetAP2; hMetAP2 Mn^2+ IC50, Table 2, in the presence of Mn^2+): 2 µM; IC50 (HUVEC; Homo sapiens, HUVEC): 6.2 µM; IC50 (HFF; Homo sapiens, HFF, Table 2): 6.6 µM
2 | O=S(=O)(O)c1ccc(O)c2ncccc12 [Entry 1d] |  |  |  |  |  | IC50 (hMetAP2; [2]): > 50 µM; IC50 (HUVEC; Homo sapiens, HUVEC): > 50 µM; IC50 (HFF; Homo sapiens, HFF, Table 2): > 50 µM
3 | OCCN(CCO)Cc1cc(Cl)c2cccnc2c1O [Entry 2a, 5-Chloro-7-(N,N-bis(2-hydroxyethyl)aminomethyl)-8-hydroxy-quinoline] |  |  |  |  |  | IC50 (hMetAP1; [3]): > 50 µM; IC50 (hMetAP1; [4]): > 50 µM; IC50 (hMetAP2; [5]): > 50 µM
4 | Oc1c(C(c2ccccc2)N2CCOCC2)cc(Cl)c2cccnc12 (stereo not shown) [Entry 2f, 5-Chloro-7-(1-phenyl-1-(N-morpholino)-methyl)-8-hydroxy-quinoline] |  |  |  |  |  | melting point: 89 °C
5 | Oc1c(C(Nc2nccs2)c2ccco2)cc(Cl)c2cccnc12 (stereo not shown) [Entry 2g, 5-Chloro-7-(1-(2-furyl)-1-(2-thiazolylamino)-methyl)-8-hydroxy-quinoline] |  |  |  |  |  | IC50 (hMetAP1; [3]): > 50 µM; IC50 (hMetAP1; [4]): > 50 µM; melting point: 126 °C; IC50 (hMetAP2; [5]): > 50 µM; IC50 (hMetAP2; Table 2, in the presence of Mn^2+, read-out: hMetAP2 Mn^2+ IC50): 2.8 µM; IC50 (HUVEC; Homo sapiens, HUVEC, Table 2): 2.5 µM; IC50 (HFF; Homo sapiens, HFF, Table 2): 13.5 µM
6 | C=CCOc1ccc(Cl)c2cccnc12 [Entry 3a, 8-Allyloxy-5-chloroquinoline] |  |  |  |  |  | IC50 (hMetAP1; [1]): > 50 µM; IC50 (hMetAP2; read-out: hMetAP2 Co^2+ IC50, Table 2, in the presence of Co^2+): > 50 µM

Second part, led by results:

Row | IC50 (hMetAP1; [6]) [µM] | IC50 (hMetAP1; [7]) [µM] | IC50 (hMetAP2; [8]) [µM] | IC50 (hMetAP2; [9]) [µM] | Compound | IC50 (HFF; Table 3) [µM] | also measured
7 | > 50 | > 50 | > 50 | 0.9 | O=C(Nc1cc(Cl)cc(Cl)c1)Oc1c(Cl)cc(Cl)c2cccnc12 [Entry 4b, 5,7-Dichloro-8-quinolyl-N-(3,5-dichlorophenyl)-carbamate] | 3 | IC50 (HUVEC; Table 3): 0.11 µM
8 | > 50 | 12.6 | 2.2 | 0.07 | O=C(Nc1cc(Cl)cc(Cl)c1)Oc1ccc(Cl)c2cccnc12 [Entry 4c, 5-Chloro-8-quinolyl-N-(3,5-dichlorophenyl)-carbamate] | 8 | IC50 (HUVEC; Table 3): 1.2 µM
9 | > 50 | > 50 | > 50 | 1.6 | O=C(Nc1ccccc1)Oc1c(Cl)cc(Cl)c2cccnc12 [Entry 4d, 5,7-Dichloro-8-quinolyl-N-phenylcarbamate] | 15.3 | 
10 | > 50 | 11.9 | 1.9 | 0.03 | O=C(Nc1ccccc1)Oc1ccc(Cl)c2cccnc12 [Entry 4e, 5-Chloro-8-quinolyl-N-phenylcarbamate] | 8.8 | IC50 (HUVEC; Table 3): 2.1 µM
11 | > 50 | > 50 | > 50 | 3.1 | O=C(Nc1ccc(F)cc1)Oc1c(Cl)cc(Cl)c2cccnc12 [Entry 4f, 5,7-Dichloro-8-quinolyl-N-(4-fluorophenyl)-carbamate] | 37 | 
